These are literature values, as cited in patent publication US5723149A, “Use of medicago saponins for the preparation of cosmetic or pharmaceutical compositions, especially dermatological compositions, promoting renewal of the epidermis, stimulating hair regrowth or delaying hair loss” (LVMH Recherche, priority 1990, dated 1998).

Molecules are shown by their SMILES.

The conditions of data set [1]: B. GESTETNER et al., Experientia, 1971.
The conditions of data set [2]: DE-3 717 280.

For the molecule `CC1(C)CC[C@]2(C(=O)O)CC[C@]3(C)C(=CC[C@@H]4[C@@]5(C)C[C@H](O)[C@H](O)[C@@](C)(C(=O)O)[C@@H]5CC[C@]43C)[C@@H]2C1` [medicagenic acid], the hemolytic activity entry in data set [1] was “hemolytic activity”. In addition, in data set [2], the antifungal activity result is “antifungal activity”.
